These are literature values, as cited in patent publication US7098224B2, “Hydroxylansoprazole methods” (Sepracor Inc., priority 1998, dated 2006).

pIC50: −log10 of the molar value.

Usually pIC50 stands for −log10 of the IC50, conventionally taken in molar units.

In the data set the test system is isolated parietal cells. Particulars: Inatomi et al., Yakuri to Chiryo 19, 477–486 (1991).

For `Cc1c(OCC(F)(F)F)ccnc1C[S+]([O-])c1nc2cc(O)ccc2[nH]1` (racemic) [racemic hydroxylansoprazole, 2[[[3-methyl-4-(2,2,2-trifluoroethoxy)-2-pyridinyl]methyl]sulfinyl]-1 H-benzimidazol-5-ol], the “inhibition of acid formation in isolated parietal cells (result in words)” value was “did not inhibit acid formation”.

Consider `Cc1c(OCC(F)(F)F)ccnc1C[S+]([O-])c1nc2ccccc2[nH]1` (racemic) [lansoprazole, Lansoprazole], for which, for the setting “read-out: inhibited acid formation in isolated parietal cells, IC50”, the pIC50 was 7.05.
